Source: patent US10626126B2, “Compounds” (Pulmocide Limited, priority 2016, dated 2020)

Tests used:
hRSV/A/Long = assay: RSV infection in cotton rats: viral titre in lung (plaque assay)
[1] = Cell viability: resazurin assay; format: cell-based; settings: human, HEp2 cells
Method: HEp2 cells were seeded in 384-well plates (10^3/well/50 μL; BD Falcon Ref 353962) in FBS DMEM (5%, containing 2 mM L-glutamine and 1 mM sodium pyruvate) one day before experimentation. Serum-free DMEM (50 μL) was added to test wells, while for control wells the media was removed and sterile water (100 μL) added. Test compounds (0.5 μL DMSO solution) were added to give a final DMSO concentration of 0.5%. HEp2 cells were incubated with each test compound for 5 days (37° C./5% CO2 in 2.5% FBS) and then resazurin stock solution (5 μL; 0.03%) was added to each well and the plate incubated for a further 6 hr (37° C./5% CO2). The fluorescence of each well at 545 nm (excitation) and 590 nm (emission) was determined using a multi-scanner (Clariostar: BMG Labtech). The percentage loss of cell viability was calculated for each well relative to vehicle (0.5% DMSO) treatment. Note that any apparent increase in cell viability associated with test compound treatment relative to vehicle is consequently tabulated as a negative percentage. Where appropriate, a CC50 value was calculated from the concentration-response curve generated from the concentration-response curve for each test compound.

RSV B Washington strain = assay: RSV B induced CPE in HEp2 cells; format: cell-based; settings: human respiratory syncytial virus; for IC50: HEp-2, 144 h, 6 days; for inhibition at 0.1 µg/mL: HEp-2, at 0.1 μg/mL
Method: (§1) HEp2 cells were seeded (10^3/well/50 μL) in 384-well plates (Catalogue number 353962, BD Falcon, Oxford, UK) in 5% FBS-DMEM (containing 2 mM L-glutamine and 1 mM sodium pyruvate) one day before infection. […] Simultaneously, test compounds (0.5 μL DMSO solution) were added to 100 μL of HEp2 cell culture with virus solution to provide a final DMSO solution of 0.5%. […] Sigma-Aldrich, Dorset, UK) was added to each well and the plate incubated for a further 6 hr (37° C./5% CO2). The fluorescence of each well [545 nm (excitation)/590 nm (emission)] was determined using a multi-scanner (Clariostar: BMG, Buckinghamshire, UK). The percentage inhibition for each well was calculated and the IC50, IC75 and IC90 values were calculated from the concentration-response curve generated for each test compound.

RSV A2 = assay: Virus titre in air-liquid interface (ALI) cultured bronchial epithelial cells; settings: for Virus titre in apical wash, geometric mean: late intervention (days 3-7), 0.1 mg/mL
RSV A2 strain = assay: RSV A2 induced CPE in HEp2 cells; format: cell-based; settings: human respiratory syncytial virus; for IC50: HEp-2, 120 h, 5 days; for inhibition at 0.01 µg/mL: HEp-2, at 0.01 μg/mL
Method: as §1

[2] = intranasal, 1.0 mg/mL, day 4 post infection

Compound	IC50 (RSV B Washington strain)	IC50 (RSV A2 strain)	reduction of virus titre (hRSV/A/Long; intra-nasal dosing at 1 mg/ml)	Virus titre in lung, Geometric Mean (hRSV/A/Long; [2])	Virus titre in lung, Median (hRSV/A/Long; [2])	CC50 at 5 days [1]	inhibition at 1 µg/mL (RSV B Washington strain; HEp-2, at 1 μg/mL)	Virus titre in apical wash, geometric mean (RSV A2; day 0)	Virus titre in apical wash, geometric mean (RSV A2; day 1)	Virus titre in apical wash, geometric mean (RSV A2; day 2)	Virus titre in apical wash, geometric mean (RSV A2; day 3)	Virus titre in apical wash, geometric mean (RSV A2; day 4)	Virus titre in apical wash, geometric mean (RSV A2; day 5)	Virus titre in apical wash, geometric mean (RSV A2; day 6)	Virus titre in apical wash, geometric mean (RSV A2; day 7)	inhibition of virus titre in ALI culture (in words) (RSV A2; late stage intervention)	inhibition at 0.01 µg/mL (RSV A2 strain)	inhibition at 0.1 µg/mL (RSV B Washington strain)
Cc1cnc(N2CC3(CCOCC3)C2)c(C(=O)Nc2ccc(C(=O)N3CCc4cc(C(=O)Nc5c(F)cccc5Cl)sc4-c4sccc43)cc2)c1 [Example 12, N-(2-chloro-6-fluorophenyl)-4-(4-(5-methyl-2-(7-oxa-2-azaspiro[3.5]nonan-2-yl)nicotinamido)benzoyl)-5,6-dihydro-4H-dithieno[3,2-b:2′,3′-d]azepine-8-carboxamide]	3.1 nM	0.14 nM	0.7 log	4.5 log, PFU/lung	4.5 log, PFU/lung	> 13500 nM	97%	0 log PFU/mL	2.57 log PFU/mL	4.86 log PFU/mL	5.27 log PFU/mL	4.71 log PFU/mL	3.45 log PFU/mL	2.62 log PFU/mL	1.22 log PFU/mL	completely inhibited virus titre	84%	–
Cc1ccc(C(=O)Nc2ccc(C(=O)N3CCc4cc(C(=O)Nc5c(F)cccc5F)sc4-c4sccc43)c(F)c2)c(N2CC3(CCOCC3)C2)n1 [Example 5, N-(2,6-Difluorophenyl)-4-(2-fluoro-4-(6-methyl-2-(7-oxa-2-azaspiro[3.5]nonan-2-yl)nicotinamido)benzoyl)-5,6-dihydro-4H-dithieno[3,2-b:2′,3′-d]azepine-8-carboxamide]	19 nM	0.55 nM	–	–	–	> 13400 nM	–	–	–	–	–	–	–	–	–	–	89%	97%
O=C(Nc1c(F)cccc1F)c1cc2c(s1)-c1sccc1N(C(=O)c1ccc(NC(=O)c3cc4c(nc3N3CC5(CCOCC5)C3)CCC4)cc1)CC2 [Example 2, 4-(4-(2-(7-Oxa-2-azaspiro[3.5]nonan-2-yl)-6,7-dihydro-5H-cyclopenta[b]pyridine-3-carboxamido)benzoyl)-N-(2,6-difluorophenyl)-5,6-dihydro-4H-dithieno[3,2-b: 2′,3′-d]azepine-8-carboxamide]	8.7 nM	0.37 nM	–	–	–	> 13300 nM	–	–	–	–	–	–	–	–	–	–	97%	86%
O=C(Nc1c(F)cccc1F)c1cc2c(s1)-c1sccc1N(C(=O)c1ccc(NC(=O)c3cc4c(nc3N3CC5(CCOCC5)C3)CCOC4)cc1)CC2 [Example 25, N-(4-(8-((2,6-difluorophenyl)carbamoyl)-5,6-dihydro-4H-dithieno[3,2-b:2′,3′-d]azepine-4-carbonyl)phenyl)-2-(7-oxa-2-azaspiro[3.5]nonan-2-yl)-7,8-dihydro-5H-pyrano[4,3-b]pyridine-3-carboxamide]	10 nM	0.18 nM	–	–	–	> 13000 nM	–	–	–	–	–	–	–	–	–	–	100%	89%

Second part, led by results:

IC50 (RSV B Washington strain)	IC50 (RSV A2 strain)	Compound	reduction of virus titre (hRSV/A/Long; intra-nasal dosing at 1 mg/ml)	Virus titre in lung, Geometric Mean (hRSV/A/Long; [2])	Virus titre in lung, Median (hRSV/A/Long; [2])	CC50 at 5 days [1]	inhibition at 1 µg/mL (RSV B Washington strain; HEp-2, at 1 μg/mL)	Virus titre in apical wash, geometric mean (RSV A2; day 0)	Virus titre in apical wash, geometric mean (RSV A2; day 1)	Virus titre in apical wash, geometric mean (RSV A2; day 2)	Virus titre in apical wash, geometric mean (RSV A2; day 3)	Virus titre in apical wash, geometric mean (RSV A2; day 4)	Virus titre in apical wash, geometric mean (RSV A2; day 5)	Virus titre in apical wash, geometric mean (RSV A2; day 6)	Virus titre in apical wash, geometric mean (RSV A2; day 7)	inhibition of virus titre in ALI culture (in words) (RSV A2; late stage intervention)	inhibition at 0.01 µg/mL (RSV A2 strain)	inhibition at 0.1 µg/mL (RSV B Washington strain)
14 nM	0.17 nM	Cc1cnc(N2CC3(CCOCC3)C2)c(C(=O)Nc2ccc(C(=O)N3CCc4cc(C(=O)Nc5c(F)cccc5F)sc4-c4sccc43)c(F)c2)c1 [Example 18, N-(2,6-difluorophenyl)-4-(2-fluoro-4-(5-methyl-2-(7-oxa-2-azaspiro[3.5]nonan-2-yl)nicotinamido)benzoyl)-5,6 dihydro-4H-dithieno[3,2-b:2′,3′-d]azepine-8-carboxamide]	–	–	–	> 13400 nM	–	–	–	–	–	–	–	–	–	–	100%	92%
32 nM	0.18 nM	COc1cccc(F)c1NC(=O)c1cc2c(s1)-c1sccc1N(C(=O)c1ccc(NC(=O)c3cc(C)cnc3N3CC4(CCOCC4)C3)cc1)CC2 [Example 16, N-(2-fluoro-6-methoxyphenyl)-4-(4-(5-methyl-2-(7-oxa-2-azaspiro[3.5]nonan-2-yl)nicotinamido)benzoyl)-5,6-dihydro-4H-dithieno[3,2-b:2′,3′-d]azepine-8-carboxamide]	–	–	–	> 13600 nM	–	–	–	–	–	–	–	–	–	–	96%	100%
